Laboratory results taken from PubChem BioAssay (NCI).
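How tested: cells in 96-well plates exposed to compound for 48 hours at five concentrations. At the TGI there is no net growth.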

What was measured:
Experiment in all cases: growth of human tumour cells (NCI), 48 h
[1] = tested on: K-562 leukemia
[2] = tested on: MDA-MB-231 breast
[3] = tested on: SK-MEL-5 melanoma
[4] = tested on: RPMI-8226 leukemia
[5] = tested on: MOLT-4 leukemia
[6] = tested on: NCI/ADR-RES ovarian
[7] = tested on: HS 578T breast
[8] = tested on: OVCAR-5 ovarian
[9] = tested on: HT29 colon
[10] = tested on: SW-620 colon
[11] = tested on: T-47D breast
[12] = tested on: HOP-62 NSCLC
[13] = tested on: SK-OV-3 ovarian
[14] = tested on: UACC-257 melanoma
[15] = tested on: BT-549 breast
[16] = tested on: OVCAR-8 ovarian
[17] = tested on: NCI-H23 lung
[18] = tested on: HCT-15 colon
[19] = tested on: U251 CNS
[20] = tested on: SF-539 CNS
[21] = tested on: LOX IMVI melanoma
[22] = tested on: OVCAR-3 ovarian
[23] = tested on: COLO 205 colon
[24] = tested on: 786-0 renal
[25] = tested on: A549 NSCLC
[26] = tested on: HL-60(TB) leukemia
[27] = tested on: SN12C renal
[28] = tested on: A498 renal
[29] = tested on: NCI-H460 lung
[30] = tested on: CAKI-1 renal
[31] = tested on: HCT-116 colon
[32] = tested on: SF-268 CNS
[33] = tested on: ACHN renal
[34] = tested on: SF-295 CNS
[35] = tested on: HOP-92 NSCLC
[36] = tested on: PC-3 prostate
[37] = tested on: NCI-H226 lung
[38] = tested on: TK-10 renal
[39] = tested on: MCF7 breast
[40] = tested on: MDA-MB-435
[41] = tested on: SNB-19 CNS
[42] = tested on: CCRF-CEM leukemia
[43] = tested on: SK-MEL-2 melanoma
[44] = tested on: IGROV1 ovarian
[45] = tested on: DU-145 prostate
[46] = tested on: SR leukemia
[47] = tested on: MDA-N
[48] = tested on: UACC-62 melanoma
[49] = tested on: SK-MEL-28 melanoma
[50] = tested on: SNB-75 CNS
[51] = tested on: UO-31 renal
[52] = tested on: EKVX NSCLC
[53] = tested on: KM12 colon
[54] = tested on: M14 melanoma
[55] = tested on: NCI-H522 lung
[56] = tested on: RXF 393 renal
[57] = tested on: OVCAR-4 ovarian
[58] = tested on: MALME-3M melanoma
[59] = tested on: HCC-2998 colon

Measured: TGI

COc1ccc(/C=N\N2CC(=O)N3C4C=CC(CC4)N3C2=O)cc1 (stereo unspecified)
not listed: [55] | [56] | [57] | [58] | [59]
> 100 µM: all other assays above

CCCCC1(N=[N+]=[N-])C(=O)c2cccc3c2N(CCC3)C1=O (stereo unspecified)
not listed: [26] | [51]
> 100 µM: all other assays above
